# Measured values taken from publication PMC9611727, “Optimization of a Novel Mandelamide-Derived Pyrrolopyrimidine Series of PERK Inhibitors” (Pharmaceutics, 2022).
# Assays:
# Experiment in all cases: scanMAX kinase panel
# Format in all cases: binding
# CAMK4 = biological target: T1, CAMK4 (Homo sapiens, UniProt Q16566); conditions: read-out: % Control; for remaining binding at 1 µM: 1000 nM
# T1 construct: purchased DiscoverX scanMAX
# T1 sequence (Q16566 1-473): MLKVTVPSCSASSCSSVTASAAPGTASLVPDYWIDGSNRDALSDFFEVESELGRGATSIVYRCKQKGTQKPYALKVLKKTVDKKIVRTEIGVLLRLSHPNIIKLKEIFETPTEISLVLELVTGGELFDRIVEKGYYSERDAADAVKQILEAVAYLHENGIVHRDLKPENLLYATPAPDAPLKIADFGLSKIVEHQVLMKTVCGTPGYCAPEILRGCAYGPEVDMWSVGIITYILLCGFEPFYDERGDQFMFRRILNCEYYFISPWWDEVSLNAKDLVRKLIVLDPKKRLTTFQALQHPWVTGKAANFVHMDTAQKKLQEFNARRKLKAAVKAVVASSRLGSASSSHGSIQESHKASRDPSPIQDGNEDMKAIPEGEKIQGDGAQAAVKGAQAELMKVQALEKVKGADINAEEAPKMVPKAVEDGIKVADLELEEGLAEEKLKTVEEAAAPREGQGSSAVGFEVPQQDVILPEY
# Description: (§1) Supplemental Table S2. scanMAXSM Kinome Assay Results. Complete tabulated data of all 468 kinases from the panel, including
# (§2) 403 wild-type and 65 mutant isoforms. […] Cmpd 11 and Cmpd 24
# CSF1R = biological target: T2, CSF1R (Homo sapiens, UniProt P07333); conditions: read-out: % Control; for remaining binding at 1 µM: 1000 nM
# T2 construct: purchased DiscoverX scanMAX
# Description: as §1, §2
# FLT3-autoinhibited = biological target: T3, FLT3-autoinhibited (Homo sapiens, UniProt P36888); conditions: read-out: % Control; for remaining binding at 1 µM: 1000 nM
# T3 construct: purchased DiscoverX scanMAX
# T3 sequence (P36888 564-993 limits assumed): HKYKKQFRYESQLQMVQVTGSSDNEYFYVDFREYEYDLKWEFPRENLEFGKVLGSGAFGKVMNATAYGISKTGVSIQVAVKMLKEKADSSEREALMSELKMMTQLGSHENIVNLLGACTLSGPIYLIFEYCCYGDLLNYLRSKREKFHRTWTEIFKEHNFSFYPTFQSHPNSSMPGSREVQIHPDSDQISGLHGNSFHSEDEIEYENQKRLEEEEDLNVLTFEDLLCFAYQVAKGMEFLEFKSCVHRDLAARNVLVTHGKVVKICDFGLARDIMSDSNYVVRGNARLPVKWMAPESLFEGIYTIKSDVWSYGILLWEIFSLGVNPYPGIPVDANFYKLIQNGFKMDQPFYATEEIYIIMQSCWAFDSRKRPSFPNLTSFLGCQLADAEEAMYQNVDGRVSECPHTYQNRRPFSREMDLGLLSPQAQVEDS
# Description: as §1, §2
# YANK2 = biological target: T4, YANK2 (Homo sapiens, UniProt Q9NY57); conditions: read-out: % Control; for remaining binding at 1 µM: 1000 nM
# T4 construct: purchased DiscoverX (scanMAX panel)
# Description: as §1, §2
# EPHB6 = biological target: T5, EPHB6 (Homo sapiens, UniProt O15197); conditions: read-out: % Control; for remaining binding at 1 µM: 1000 nM
# T5 construct: purchased DiscoverX scanMAX
# T5 sequence (O15197 32-1021): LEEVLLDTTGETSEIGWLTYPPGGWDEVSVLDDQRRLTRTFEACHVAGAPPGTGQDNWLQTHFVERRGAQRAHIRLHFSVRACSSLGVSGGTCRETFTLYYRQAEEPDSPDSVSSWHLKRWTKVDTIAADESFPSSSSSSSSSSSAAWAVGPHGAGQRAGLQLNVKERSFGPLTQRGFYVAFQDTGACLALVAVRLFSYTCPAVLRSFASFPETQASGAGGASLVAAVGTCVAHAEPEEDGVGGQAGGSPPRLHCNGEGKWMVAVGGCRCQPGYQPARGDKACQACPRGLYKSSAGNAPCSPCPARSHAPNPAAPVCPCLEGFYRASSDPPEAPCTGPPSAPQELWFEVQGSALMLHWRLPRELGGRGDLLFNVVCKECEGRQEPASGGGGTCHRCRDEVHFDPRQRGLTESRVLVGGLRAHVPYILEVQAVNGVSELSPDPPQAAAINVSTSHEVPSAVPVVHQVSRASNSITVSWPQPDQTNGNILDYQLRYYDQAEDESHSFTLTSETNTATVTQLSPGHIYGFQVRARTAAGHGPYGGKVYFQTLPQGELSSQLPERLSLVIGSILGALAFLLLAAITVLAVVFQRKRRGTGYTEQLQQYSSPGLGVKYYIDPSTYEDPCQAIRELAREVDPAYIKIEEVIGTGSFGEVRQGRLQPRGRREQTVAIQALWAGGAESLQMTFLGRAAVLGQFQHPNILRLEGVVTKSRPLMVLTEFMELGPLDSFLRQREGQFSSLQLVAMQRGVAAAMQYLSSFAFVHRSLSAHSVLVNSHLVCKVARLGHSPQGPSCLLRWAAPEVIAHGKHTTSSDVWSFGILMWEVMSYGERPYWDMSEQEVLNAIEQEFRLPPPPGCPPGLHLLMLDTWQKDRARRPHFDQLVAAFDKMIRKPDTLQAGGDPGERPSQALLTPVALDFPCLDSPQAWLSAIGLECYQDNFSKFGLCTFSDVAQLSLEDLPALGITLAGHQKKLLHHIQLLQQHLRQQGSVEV
# Description: as §1, §2
# KIT = biological target: T6, KIT (Homo sapiens, UniProt P10721); conditions: read-out: % Control; for remaining binding at 1 µM: 1000 nM
# T6 construct: purchased DiscoverX scanMAX
# Description: as §1, §2
# VRK2 = biological target: T7, VRK2 (Homo sapiens, UniProt Q86Y07); conditions: read-out: % Control; for remaining binding at 1 µM: 1000 nM
# T7 construct: purchased DiscoverX (scanMAX panel)
# Description: as §1, §2
# FLT3(ITD) = tested on: FLT3(ITD)
# Description: as §1, §2
# T4 sequence (Q9NY57 whole entry): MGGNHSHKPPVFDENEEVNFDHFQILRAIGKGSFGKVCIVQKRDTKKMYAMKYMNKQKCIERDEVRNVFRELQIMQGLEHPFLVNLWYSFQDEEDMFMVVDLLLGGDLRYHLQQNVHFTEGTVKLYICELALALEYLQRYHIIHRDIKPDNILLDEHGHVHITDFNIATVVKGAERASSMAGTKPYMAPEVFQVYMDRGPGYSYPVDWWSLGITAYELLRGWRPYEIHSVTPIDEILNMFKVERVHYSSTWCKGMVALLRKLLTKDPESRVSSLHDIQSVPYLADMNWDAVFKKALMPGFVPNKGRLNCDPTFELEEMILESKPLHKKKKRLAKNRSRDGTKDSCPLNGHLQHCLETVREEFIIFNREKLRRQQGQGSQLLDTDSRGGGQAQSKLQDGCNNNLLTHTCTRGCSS
# T6 sequence (P10721 26-976): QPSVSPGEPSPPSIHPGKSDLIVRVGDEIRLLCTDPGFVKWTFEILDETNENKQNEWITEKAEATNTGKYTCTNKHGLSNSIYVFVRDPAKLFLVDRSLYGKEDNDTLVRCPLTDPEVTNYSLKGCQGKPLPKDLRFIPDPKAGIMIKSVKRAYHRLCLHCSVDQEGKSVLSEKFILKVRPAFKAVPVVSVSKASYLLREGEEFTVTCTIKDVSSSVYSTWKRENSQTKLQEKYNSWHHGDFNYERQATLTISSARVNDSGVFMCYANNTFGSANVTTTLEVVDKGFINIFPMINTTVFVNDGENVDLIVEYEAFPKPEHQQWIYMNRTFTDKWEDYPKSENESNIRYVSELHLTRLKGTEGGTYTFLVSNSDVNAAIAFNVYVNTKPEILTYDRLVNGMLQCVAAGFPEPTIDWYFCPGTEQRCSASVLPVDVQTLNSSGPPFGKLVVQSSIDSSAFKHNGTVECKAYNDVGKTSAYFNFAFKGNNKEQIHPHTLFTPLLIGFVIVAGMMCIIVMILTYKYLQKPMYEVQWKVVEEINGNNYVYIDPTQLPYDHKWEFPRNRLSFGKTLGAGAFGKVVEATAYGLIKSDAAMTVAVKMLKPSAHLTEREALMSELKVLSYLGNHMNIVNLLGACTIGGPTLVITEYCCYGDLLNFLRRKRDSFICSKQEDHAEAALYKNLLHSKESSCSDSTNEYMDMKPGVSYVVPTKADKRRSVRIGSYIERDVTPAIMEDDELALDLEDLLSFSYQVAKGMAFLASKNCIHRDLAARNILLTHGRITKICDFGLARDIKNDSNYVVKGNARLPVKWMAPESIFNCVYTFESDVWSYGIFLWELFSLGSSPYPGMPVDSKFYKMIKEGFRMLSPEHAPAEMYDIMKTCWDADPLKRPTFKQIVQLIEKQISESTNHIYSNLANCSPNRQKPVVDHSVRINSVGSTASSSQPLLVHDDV
# T2 sequence (P07333 20-972): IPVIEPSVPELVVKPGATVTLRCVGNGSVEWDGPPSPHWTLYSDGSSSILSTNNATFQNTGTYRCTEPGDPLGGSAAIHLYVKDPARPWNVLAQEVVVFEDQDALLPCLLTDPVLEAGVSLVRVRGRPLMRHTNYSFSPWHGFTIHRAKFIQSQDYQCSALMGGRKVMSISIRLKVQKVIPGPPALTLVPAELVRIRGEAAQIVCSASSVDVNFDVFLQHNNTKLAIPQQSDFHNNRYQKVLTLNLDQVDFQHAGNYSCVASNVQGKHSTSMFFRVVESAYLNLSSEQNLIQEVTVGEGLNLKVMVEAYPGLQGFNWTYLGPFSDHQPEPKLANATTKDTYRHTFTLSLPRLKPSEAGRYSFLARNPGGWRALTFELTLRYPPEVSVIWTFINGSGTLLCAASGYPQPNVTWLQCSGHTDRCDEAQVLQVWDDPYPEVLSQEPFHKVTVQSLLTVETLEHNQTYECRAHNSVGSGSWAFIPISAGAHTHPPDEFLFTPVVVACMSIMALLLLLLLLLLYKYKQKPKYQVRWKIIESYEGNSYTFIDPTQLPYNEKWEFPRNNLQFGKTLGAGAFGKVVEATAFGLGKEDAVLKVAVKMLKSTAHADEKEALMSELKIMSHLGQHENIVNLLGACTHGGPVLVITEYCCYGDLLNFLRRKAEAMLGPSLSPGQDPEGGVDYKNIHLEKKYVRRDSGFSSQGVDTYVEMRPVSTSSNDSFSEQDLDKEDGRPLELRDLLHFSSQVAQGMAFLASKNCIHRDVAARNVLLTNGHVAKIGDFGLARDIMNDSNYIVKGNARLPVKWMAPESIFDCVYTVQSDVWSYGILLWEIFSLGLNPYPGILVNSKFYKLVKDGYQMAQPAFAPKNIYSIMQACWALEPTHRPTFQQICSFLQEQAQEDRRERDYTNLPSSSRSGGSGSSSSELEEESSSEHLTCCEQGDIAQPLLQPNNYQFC
# T7 sequence (Q86Y07 whole entry): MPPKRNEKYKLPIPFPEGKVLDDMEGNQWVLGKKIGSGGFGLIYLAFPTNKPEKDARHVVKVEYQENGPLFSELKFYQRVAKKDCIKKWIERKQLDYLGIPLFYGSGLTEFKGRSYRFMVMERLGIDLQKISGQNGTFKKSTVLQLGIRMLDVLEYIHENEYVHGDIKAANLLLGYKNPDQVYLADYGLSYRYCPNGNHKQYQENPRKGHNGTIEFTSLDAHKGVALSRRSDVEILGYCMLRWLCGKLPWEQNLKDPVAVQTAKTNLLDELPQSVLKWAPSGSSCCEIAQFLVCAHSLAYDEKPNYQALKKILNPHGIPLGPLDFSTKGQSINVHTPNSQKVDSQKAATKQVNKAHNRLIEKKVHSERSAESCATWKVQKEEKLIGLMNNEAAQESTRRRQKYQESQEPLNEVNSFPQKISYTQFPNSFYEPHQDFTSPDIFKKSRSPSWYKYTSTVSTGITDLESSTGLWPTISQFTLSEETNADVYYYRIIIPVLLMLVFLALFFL
Structure (SMILES),remaining binding at 1 µM (CAMK4) [%],remaining binding at 1 µM (CSF1R) [%],remaining binding at 1 µM (FLT3-autoinhibited) [%],remaining binding at 1 µM (YANK2) [%],remaining binding at 1 µM (EPHB6) [%],remaining binding at 1 µM (KIT) [%],remaining binding at 1 µM (VRK2) [%],% Control (FLT3(ITD); 1000 nM) [%],remaining binding at 0.1 µM (CAMK4; 100 nM) [%],remaining binding at 0.1 µM (CSF1R; 100 nM) [%],remaining binding at 0.1 µM (FLT3-autoinhibited; 100 nM) [%],remaining binding at 0.1 µM (YANK2; 100 nM) [%],remaining binding at 0.1 µM (EPHB6; 100 nM) [%],remaining binding at 0.1 µM (KIT; 100 nM) [%],remaining binding at 0.1 µM (VRK2; 100 nM) [%],% Control (FLT3(ITD); 100 nM) [%]
"Cc1cc(NC(=O)[C@H](O)c2cccc(F)c2)ccc1-c1cn(C)c2ncnc(N)c12 [Compound 11, (R)-N-(4-(4-amino-7-methyl-7H-pyrrolo[2,3-d]pyrimidin-5-yl)-3-methylphenyl)-2-(3-fluorophenyl)-2-hydroxy acetamide]",32,45,57,11,2.6,38,26,34,,,,,,,,
Cc1nc(N)c2c(-c3ccc(NC(=O)[C@H](O)c4cccc(F)c4)cc3C)cn(C)c2n1 [Compound 24],100,94,100,100,100,100,100,94,,,,,,,,
Cc1nc(N)c2c(-c3ccc(NC(=O)[C@H](O)c4cccc(C(F)(F)F)c4)cc3C)cn(C)c2n1 [Compound 26],75,15,65,63,48,0.65,78,9.4,100,99,100,92,94,97,94,95
